Common to all, as to type: in vivo
For data set [1], the system named is cotton aphids (Aphis gossypii). The experiment in a line: Test Method 1: cotton aphid, foliar spray on cucumber seedling (Formulation Example 1). The settings on record: 500 ppm; foliar spray 10 mL/seedling; 5 days after spraying. How it is done:
(§1) Each test compound is made to a formulation according to a similar method to that described in the Formulation Example 1, and thereto is added water containing 0.03 v/v % of Shindain (registered trademark) to prepare a diluted solution containing a prescribed concentration of the test compound.
(§2) Cucumber (Cucumis sativus) seedling (on the developmental stage of the second true leaf) is planted in a container and approximately 30 cotton aphids (Aphis gossypii) (all developmental stages of life) are released onto the leaves of the cucumber. After 1 day, the diluted solutions are sprayed to the seedling at a ratio of 10 mL/seedling. Further, after 5 days, the number of the surviving insects is examined and the controlling value is calculated by the following equation.
Controlling value(%)={1−(Cb×Tai)/(Cai×Tb)}×100
wherein the symbols in the formula represent the following descriptions. • Cb: Number of the test insects in untreated group; • Cai: Number of the surviving insects at the time of the investigation in untreated group; • Tb: Number of the test insects in treated group; • Tai: Number of the surviving insects at the time of the investigation in treated group;
Here the “untreated group” represents a group where the similar treatment procedure to that of the treated group except not using the test compound is done.

For data set [2], the system named is cotton worm (Spodoptera litura). The experiment in a line: Test Method 3: cotton worm, sprayed cabbage seedling, second-instar larvae. The settings on record: 500 ppm, spray 20 mL/seedling, 5 days. How it is done:
as §1
(§3) Cabbage (Brassicae oleracea) seedling (on the developmental stage of the second to third true leaf) is planted in a container, and the diluted solutions are sprayed to the seedling at a ratio of 20 mL/seedling. Thereafter, the aerial part of the seedling is cut out and then is installed into a container in which a filter paper is placed at the bottom of the container. Five of second-instar larvae of cotton worm (Spodoptera litura) are released into the container. After 5 days, the number of the surviving insects is counted, and the mortality of insects is calculated by the following equation.
(§4) Mortality(%)=(1−Number of surviving insects/5)×100

Data set [3] relates to diamondback moth (Plutella xylostella). The experiment in a line: Test Method 4: diamondback moth, sprayed cabbage seedling, second-instar larvae. As to conditions: 500 ppm, spray 20 mL/seedling, 5 days. As for the experimental part: as §1
as §3, with “diamondback moth (Plutella xylostella)” for “cotton worm (Spodoptera litura)”
as §4

Data set [4] relates to Western corn rootworm (Diabrotica virgifera virgifera). The experiment in a line: Test Method 5: Western corn rootworm, immersed corn seedling. The settings on record: 200 ppm; corn seedling immersed 30 seconds; second-instar larvae; 5 days. How it is done: Each 1 mg of the test compounds is dissolved in 50 μL of a mixed solution consisting of 5% of polyoxyethylene sorbitan mono-cocoate and 95% of acetone by volume ratio. Thereto is added water containing 0.03% by volume of Shindain (registered trademark) to prepare a diluted solution containing a prescribed concentration of the test compound.
A young seedling of corn (Zea mays) is immersed into the diluted solution for 30 seconds. Thereafter, two seedlings are installed in a plastic petri dish ([…]), and 10 of second-instar larvae of Western corn rootworm (Diabrotica virgifera virgifera) are released into the dish. After 5 days, the number of the dead insects is counted, and the mortality of insects is calculated by the following equation.
Mortality(%)=(Number of dead insects/10)×100

For data set [5], the system named is housefly (Musca domestica). The experiment in a line: Test Method 8: housefly female adults, coated glass vial. The settings on record: 40 mg/m^2 coated vial, 1 day. As for the experimental part: An acetone solution which is adjusted to 800 ppm of each test compound is poured into a 20 mL glass vial, and the test compound is coated uniformly on inner face of the vial so as to 40 mg/m^2 of the test compound treated, and the vial is then dried.
5 housefly (Musca domestica) female adults are released into the treated vial, and the vial is then covered with lid. After the prescribed time, the state of the housefly is examined, and the mortality is calculated by the following equation.
(§5) Mortality(%)=(Number of dead insects/Number of tested insects)×100

Data set [6] deals with cotton aphids (Aphis gossypii). The experiment in a line: Test Method 11: cotton aphid, foliar spray on cucumber seedling (Formulation Example 5). As to conditions: 200 ppm; foliar spray 10 mL/seedling; 5 days after spraying. How it is done: Each test compound is made to a formulation according to a similar method to that described in the Formulation Example 5, and thereto is added water containing 0.03 v/v % of Shindain (registered trademark) to prepare a diluted solution containing a prescribed concentration of the test compound.
as §2
Controlling value (%)={1−(Cb×Tai)/(Cai×)}×100
wherein the symbols in the formula represent the following descriptions. • Cb: Number of the test insects in untreated group; • Cai: Number of the surviving insects at the time of the investigation in untreated group; • Tb: Number of the test insects in treated group; • Tai: Number of the surviving insects at the time of the investigation in treated group; • Here the “untreated group” represents a group where the similar treatment procedure to that of the treated group except not using the test compound is done.

The subject of data set [7] is common house mosquito (Culex pipiens pallens). The data set is described as follows: Test Method 12: common house mosquito larvae in diluted solution. As to conditions: 3.5 ppm; last instar larvae; 1 day. As for the experimental part: Each test compound is formulated to a test formulation according to a similar method to that described in the Formulation Example 1, and water is added in preparing for a diluted solution containing a prescribed concentration of the test compound.
Into the diluted solution, 30 last instar larvae of common house mosquito (Culex pipiens pallens) are released, and after 1 day, the state of the house mosquito larvae is examined, and the mortality is calculated by the following equation.
as §5

A value given as a limit tells only on which side of the number the result lay.

The mortality is the share of the test organisms that died. A higher mortality goes with fewer survivors. With `CCS(=O)(=O)c1cc(-c2ccc(Cl)cc2)cnc1N1CCn2nc(C(F)(F)F)cc2C1=O` [compound 11], the controlling value in data set [1] and in data set [6] was no less than 90% throughout. The mortality in data set [2], in data set [3], in data set [4] and in data set [5] was no less than 80% in each case.

For the compound `CCS(=O)(=O)c1cc(Br)cnc1N1CCn2nc(C(F)(F)F)cc2C1=O` [compound 7], the controlling value in data set [1] and in data set [6] was no less than 90% each time. The mortality in data set [4] was no less than 80%; in data set [7], “greater than 90%”.

With `CCS(=O)(=O)c1cc(Br)cnc1N1CCn2nc(OC(F)F)cc2C1=O` [compound 8], the controlling value in data set [1] and in data set [6] was no less than 90% in each case. The compound further came in with a mortality in data set [3] of no less than 80%.

Regarding `CCS(=O)(=O)c1cc(-c2ccc(F)cc2)cnc1N1CCn2nc(C(F)(F)F)cc2C1=O` [compound 9], the controlling value in data set [1] and in data set [6] was no less than 90% in each case. Further, the mortality in data set [2], in data set [3] and in data set [4] was no less than 80% in each case.

Regarding `CCS(=O)(=O)c1cc(-c2cc(Cl)ccn2)cnc1N1CCn2nc(C(F)(F)F)cc2C1=O` [compound 27], the values for the mortality in data set [3] and in data set [7] were no less than 80% and “greater than 90%”, respectively.

`CCS(=O)(=O)c1cc(-c2ccc(F)cc2)cnc1N1CCn2nc(OC(F)F)cc2C1=O` [compound 19]: the controlling value in data set [1] and in data set [6] was no less than 90% each time. Further, the mortality in data set [2] was no less than 80%; in data set [7], “greater than 90%”.

As to `CCS(=O)(=O)c1c(N2CCn3nc(OC(F)F)cc3C2=O)nc2ccc(I)cn12` [compound 3], the mortality in data set [2] is given as no less than 80%; in data set [3], no less than 80%; in data set [4], no less than 80%; in data set [5], no less than 80%; in data set [7], “greater than 90%”. The controlling value in data set [6] is given as no less than 90%.

Turning to `CCS(=O)(=O)c1cc(C2CC2)cnc1N1CCn2nc(OC(F)F)cc2C1=O` [compound 6], the controlling value in data set [1] and in data set [6] was no less than 90% each time. Also, the mortality is given as no less than 80% in data set [2], no less than 80% in data set [3], no less than 80% in data set [4] and “greater than 90%” in data set [7].

`CCS(=O)(=O)c1cc(-c2cc(Cl)cc(Cl)c2)cnc1N1CCn2nc(C(F)(F)F)cc2C1=O` [compound 13] displayed a controlling value in data set [1] of no less than 90%. The values for the mortality in data set [2], in data set [3] and in data set [7] were no less than 80%, no less than 80% and “greater than 90%”, respectively.

As to `CCS(=O)(=O)c1c(N2CCn3nc(Br)cc3C2=O)nc2ccc(I)cn12` [compound 46], the controlling value in data set [6] is reported as no less than 90%.

The compound `CCS(=O)(=O)c1cc(-c2ccc(Cl)cc2)cnc1N1CCn2nc(OC(F)F)cc2C1=O` [compound 16] came in with a controlling value in data set [6] of no less than 90%.

In turn, `CCS(=O)(=O)c1cc(-c2cccc(C#N)n2)cnc1N1CCn2nc(C(F)(F)F)cc2C1=O` [compound 23] returned a controlling value in data set [1] of no less than 90%. Besides, the mortality entry in data set [7] is recorded as “greater than 90%”.

For the origin of these results see US20260363245A1, “HETEROCYCLIC COMPOUND AND HARMFUL ARTHROPOD CONTROL COMPOSITION CONTAINING SAME” (SUMITOMO CHEMICAL COMPANY, LIMITED, priority 2022, published 2026).
